Assay results reported in a melting point compilation (Tetko et al.; mined from patent text by program, amines drawn as free bases though some values may be those of a salt).

Structure (SMILES)	melting point [°C]
CCCC[C@H](NC(=O)[C@H](CC(C)C)NC(=O)c1ccc(OC)cc1)C(=O)CSCc1ccco1	124
CCOC(=O)C(=O)Nc1ccc(Br)cc1[N+](=O)[O-]	168 to 169
CS(=O)(=O)Nc1cc([C@@H](O)CNC2CCN(c3ccc(S(=O)(=O)N4CC(=O)NC4=O)cc3)CC2)ccc1O	200 to 202
O=[N+]([O-])c1ccc(-c2cc3c(Nc4ccc(Cl)cc4F)ncnc3o2)cc1	174 to 177
O=C(c1ccc(Br)cc1)c1cc(Br)c(C(=O)c2ccc(Br)cc2)cc1Br	254 to 256
O=[N+]([O-])c1cccc2c1CN(Cc1ccccc1)C2	77.5 to 78
O=C(O)C1CCc2[nH]c3cc(Cl)c(Cl)cc3c2C1 (centres undefined)	243 to 244
CN(C)CCOc1ccc(N2C(=O)C=C3CCCCC32)cc1 (centres undefined)	90
CC1=C(C(=O)O)C(c2cccc(Cl)c2Cl)C(c2nnco2)=C(C)N1 (centres undefined)	187 to 190
COc1ccc(Cc2nc3cc(Cl)cc(CC(N)=O)c3o2)cc1OC1CCCC1	162 to 164
N=C(NCl)c1ccsc1	96 to 98
CCOC(=O)CC(=O)NS(=O)(=O)c1ccc([N+](=O)[O-])cc1	97
CCCCc1nc2c(N)nc3ccc(OCCC4CCN(S(C)(=O)=O)CC4)cc3c2n1C	198 to 200
C=CCCO[C@@H](Cc1ccc(OCCc2nc(-c3ccc(C(C)C)cc3)oc2C)c2ccsc12)C(=O)O	124 to 126
CCCCOc1nc(N)c2ncn(C3CCCCC3)c2n1	138 to 141
O=C1CCN(c2ccccc2)N1CN1C(=O)c2ccccc2S1(=O)=O	209 to 213
Cc1ccc(-c2c3n(c(=O)c4ncccc24)CCN(Cc2cc(C(F)(F)F)cc(C(F)(F)F)c2)C3=O)cc1	270 to 271
Cc1ccc(S(=O)(=O)N2CCC(NC(=O)Nc3ccc(OC(F)(F)F)cc3)CC2)cc1	205 to 207
O=CNc1cccc2c1SC1=NCCN12	217
CN(C(=O)Nc1ccccc1)c1cccc(-c2ccc(CC3SC(=O)NC3=O)cc2)c1 (centres undefined)	183

Structure (SMILES)	melting point [°C]
CCc1cccc(CC)c1N1C(=S)N(C)C(O)C1O (centres undefined)	87 to 90
CCNc1ccc(C(C)=O)cc1S(N)(=O)=O	201 to 204
COC1(c2cc(F)cc(CC#COC#CCc3cc(F)cc(C4(OC)CCOCC4)c3)c2)CCOCC1	75 to 77
O=C1NC(=O)C(c2cc(Cl)ccc2S(=O)(=O)Cl)N1 (centres undefined)	211 to 212
COc1cc2[nH]c(N(C)Cc3cccc(C4=NCCN4C)c3)nc(=O)c2c(C)c1OC	145 to 148
CN1C(C)(C)CC(NC(=O)c2ccc(-c3nc4cc(Cl)c(Cl)cc4[nH]3)cc2)CC1(C)C	> 280
Cc1cc2c(c3ccc(=O)[nH]c13)OC(CNC(=O)CCNC(=O)OCc1ccccc1)C2 (centres undefined)	233 to 234
Oc1ccc(-c2ccc(O)c(Br)c2)cc1Br	118 to 121
Cn1c(=O)n2nc(-c3ccc(Cl)cc3)nc2c2ccccc21	323 to 325
COc1cc(-c2nc(-c3ccc(N(C)C)cc3)c(C)s2)cc(OC)c1O	230 to 233
NCCc1cc(F)cc(C(F)(F)F)c1	> 170
CCOC(=O)C(NC(=O)CNC(=O)OCc1ccccc1)C(=O)OCC	94.5 to 95.5
CC(C)COCCOc1ccc(OCC(O)CNCCNC(=O)N2CCOCC2)cc1 (centres undefined)	95 to 96
O=C1CC(c2cccc(-n3ccnn3)c2)=Nc2ccc(-c3ccc(F)cc3)cc2N1	218 to 220
CCOCc1nc2c(N)nc3cc(OCc4cccc(C)c4)ccc3c2n1CC(C)(C)NS(C)(=O)=O	252 to 254
Clc1ccc(COc2ccccc2C(=NOCc2ccccc2)n2ccnc2)cc1	94 to 95.5
CCc1nc2c(Br)cccc2cc1C	54
CCCOc1ccc(CC(=O)NCCc2ccc(OCC)c(OCC)c2)cc1OCCC	99
COc1cc2c(cc1OC)C(C(CO)CO)N(C(=O)Nc1ccccc1)CC2 (centres undefined)	191 to 192
